Test results published in patent US6794372B2, “Nitrate salts of antimicrobial agents” (Nicox S.A., priority 2000, dated 2004).

Assays:
[1] = tested on: Escherichia Coli (ATCC25922); assay: Dilution test in vitro on medium for antibacterial agents, strain E. Coli; type: cell-based; details: CAMH broth, 5×10^5 CFU/ml, 35° C. for 20 hr, read with the naked eye
From the text: (§1) Dilution Test in vitro on Medium for Antibacterial Agents
The capability to antagonize the arising of the microbial resistance of the nitrate salts of the antimicrobial compounds in comparison with that of the respective precursors has been evaluated.
(§2) Such activity has been determined by using the dilution method in vitro on culture medium as described by Sahm et al. (S. D. Sahm, J. A. Washington “Antibacterial susceptibility tests: dilution methods” in: Manual of Clinical Microbiology, ed. A. Balows, W. J. Hausler, Jr, K. L. Hermann, H. D. Isenberg, H. J. Shadomy, 1991, American Society for Microbiology). According to this method a concentration in aqueous solution of substance having antimicrobial activity able to inhibit the growth of some bacterial strains is determined. For the precursor the maximum concentration of the substance at which the microbial growth is still observed under the adopted experimental conditions is selected and the same concentration is used for the corresponding nitrate salt. The solvents and the necessary dilutions for preparing the strain substances of the antibiotics to be tested are prepared according to procedures standard and well known to the person skilled in the field (National Committee for Clinical Laboratory Standards, 1990 “Methods for dilution antimicrobial susceptibility tests for bacteria that grow aerobically. Approved standard M7-A2. National Committee for Clinical Laboratory Standards, Villanova, Pa.). Also the preparation of the culture medium is carried out according to standard procedures and the CAMH broth is used (Cation-adjusted Mueller-Hinton broth) (National Committee for Clinical Laboratory Standards, 1990, Methods for dilution antimicrobial susceptibility tests for bacteria that grow aerobically. Approved standard M7-A2. National Committee for Clinical Laboratory Standards, Villanova, Pa.).
(§3) The inoculation procedure is carried out according to standard procedures and the final concentration of the inocolum is of 5×10^5 CFU (colony forming unit)/ml. The used microorganisms have been Escherichia Coli (ATCC25922) and Staphylococcus Aureus (ATCC29213).
(§4) The test tubes are incubated at 35° C. for 20 hr before reading. The microbial growth, or the absence of the same, is determined in a qualitative way, with the naked eye and it indicates the microbial resistance or, respectively, the sensitivity to the antimicrobial agent.

[2] = tested on: Staphylococcus Aureus (ATCC29213); assay: Dilution test in vitro on medium for antibacterial agents, strain S. Aureus; type: cell-based; details: CAMH broth, 5×10^5 CFU/ml, 35° C. for 20 hr, read with the naked eye
From the text: as §1, §2, §3, §4

Question: With `CC1(C)S[C@@H]2[C@H](NC(=O)[C@H](N)c3ccccc3)C(=O)N2[C@H]1C(=O)O.O=[N+]([O-])O` [Ampicillin.HNO3, Ampicillin nitrate salt] as the compound, how does the “RESPONSE (microbial growth)” value ([1]; concentration 1.0 μg/ml) read?
Answer: No growth

Question: Which “RESPONSE (microbial growth)” value ([1]; concentration 1.0 μg/ml) does the source give for `CC1(C)S[C@@H]2[C@H](NC(=O)[C@H](N)c3ccccc3)C(=O)N2[C@H]1C(=O)O` [Ampicillin] here?
Answer: Growth

Question: Which “RESPONSE (microbial growth)” value ([1]; concentration 0.5 μg/ml) does the source give for `Cc1nnc(SCC2=C(C(=O)O)N3C(=O)[C@@H](NC(=O)Cn4cnnn4)[C@H]3SC2)s1.O=[N+]([O-])O` [Cefazolin.HNO3, Cefazolin nitrate salt] here?
Answer: No growth

Question: Which “RESPONSE (microbial growth)” value ([1]; concentration 0.5 μg/ml) does the source give for `Cc1nnc(SCC2=C(C(=O)O)N3C(=O)[C@@H](NC(=O)Cn4cnnn4)[C@H]3SC2)s1` [Cefazolin] here?
Answer: Growth

Question: Which “RESPONSE (microbial growth)” value ([2]; concentration 1.0 μg/ml) does the source give for `O=C(O)c1cn(C2CC2)c2cc(N3CCNCC3)c(F)cc2c1=O.O=[N+]([O-])O` [Ciprofloxacin.HNO3, Ciprofloxacin nitrate salt] here?
Answer: No growth

Question: How did the “RESPONSE (microbial growth)” value ([2]; concentration 0.05 μg/ml) turn out when `O=C(O)c1cn(C2CC2)c2cc(N3CCNCC3)c(F)cc2c1=O` [Ciprofloxacin] was run?
Answer: Growth

Question: For `CCCC1CC(C(=O)NC(C(C)Cl)C2OC(SC)C(O)C(O)C2O)N(C)C1.O=[N+]([O-])O` (centres unmarked) [Clindamycin.HNO3, Clindamycin nitrate salt], which “RESPONSE (microbial growth)” value ([2]; concentration 0.03 μg/ml) is on record?
Answer: No growth

Question: With `CCC[C@@H]1C[C@@H](C(=O)N[C@@H]([C@H]2O[C@H](SC)[C@H](O)[C@@H](O)[C@H]2O)[C@H](C)Cl)N(C)C1` [Clindamycin] as the compound, how does the “RESPONSE (microbial growth)” value ([2]; concentration 0.03 μg/ml) read?
Answer: Growth

Question: `CC[C@H]1OC(=O)[C@H](C)[C@@H](O[C@H]2C[C@@](C)(OC)[C@@H](O)[C@H](C)O2)[C@H](C)[C@@H](O[C@@H]2O[C@H](C)C[C@H](N(C)C)[C@H]2O)[C@](C)(O)C[C@@H](C)C(=O)[C@H](C)[C@@H](O)[C@]1(C)O.O=[N+]([O-])O` [Erythromycin.HNO3, Erythromycin nitrate salt] was tested. Which “RESPONSE (microbial growth)” value ([2]; concentration 0.06 μg/ml) did it give?
Answer: No growth

Question: `CC[C@H]1OC(=O)[C@H](C)[C@@H](O[C@H]2C[C@@](C)(OC)[C@@H](O)[C@H](C)O2)[C@H](C)[C@@H](O[C@@H]2O[C@H](C)C[C@H](N(C)C)[C@H]2O)[C@](C)(O)C[C@@H](C)C(=O)[C@H](C)[C@@H](O)[C@]1(C)O` [Erythromycin] was tested. Which “RESPONSE (microbial growth)” value ([2]; concentration 0.06 μg/ml) did it give?
Answer: Growth

Question: For `Cc1cc(NS(=O)(=O)c2ccc(N)cc2)no1.O=[N+]([O-])O` [Sulfamethoxazole.HNO3, Sulfamethoxazole nitrate salt], which “RESPONSE (microbial growth)” value ([2]; concentration 20 μg/ml) is on record?
Answer: No growth

Question: With `Cc1cc(NS(=O)(=O)c2ccc(N)cc2)no1` [Sulfamethoxazole] as the compound, how does the “RESPONSE (microbial growth)” value ([2]; concentration 20 μg/ml) read?
Answer: Growth

Question: With `COc1cc(Cc2cnc(N)nc2N)cc(OC)c1OC.O=[N+]([O-])O` [Trimethoprim.HNO3, Trimethoprim nitrate salt] as the compound, how does the “RESPONSE (microbial growth)” value ([2]; concentration 0.5 μg/ml) read?
Answer: No growth

Question: `COc1cc(Cc2cnc(N)nc2N)cc(OC)c1OC` [Trimethoprim] was tested. Which “RESPONSE (microbial growth)” value ([2]; concentration 0.5 μg/ml) did it give?
Answer: Growth
